Experimental findings from patent US12486284B2, “Ubiquitin-specific protease inhibitor and preparation method therefor and use thereof” (CHASER THERAPEUTICS, INC., priority 2019, dated 2025) are described below.

Assay [1] addresses T1, USP25 (Homo sapiens, UniProt Q9UHP3).
T1 construct: purchased R&D Systems
T1 sequence (Q9UHP3 1-1055): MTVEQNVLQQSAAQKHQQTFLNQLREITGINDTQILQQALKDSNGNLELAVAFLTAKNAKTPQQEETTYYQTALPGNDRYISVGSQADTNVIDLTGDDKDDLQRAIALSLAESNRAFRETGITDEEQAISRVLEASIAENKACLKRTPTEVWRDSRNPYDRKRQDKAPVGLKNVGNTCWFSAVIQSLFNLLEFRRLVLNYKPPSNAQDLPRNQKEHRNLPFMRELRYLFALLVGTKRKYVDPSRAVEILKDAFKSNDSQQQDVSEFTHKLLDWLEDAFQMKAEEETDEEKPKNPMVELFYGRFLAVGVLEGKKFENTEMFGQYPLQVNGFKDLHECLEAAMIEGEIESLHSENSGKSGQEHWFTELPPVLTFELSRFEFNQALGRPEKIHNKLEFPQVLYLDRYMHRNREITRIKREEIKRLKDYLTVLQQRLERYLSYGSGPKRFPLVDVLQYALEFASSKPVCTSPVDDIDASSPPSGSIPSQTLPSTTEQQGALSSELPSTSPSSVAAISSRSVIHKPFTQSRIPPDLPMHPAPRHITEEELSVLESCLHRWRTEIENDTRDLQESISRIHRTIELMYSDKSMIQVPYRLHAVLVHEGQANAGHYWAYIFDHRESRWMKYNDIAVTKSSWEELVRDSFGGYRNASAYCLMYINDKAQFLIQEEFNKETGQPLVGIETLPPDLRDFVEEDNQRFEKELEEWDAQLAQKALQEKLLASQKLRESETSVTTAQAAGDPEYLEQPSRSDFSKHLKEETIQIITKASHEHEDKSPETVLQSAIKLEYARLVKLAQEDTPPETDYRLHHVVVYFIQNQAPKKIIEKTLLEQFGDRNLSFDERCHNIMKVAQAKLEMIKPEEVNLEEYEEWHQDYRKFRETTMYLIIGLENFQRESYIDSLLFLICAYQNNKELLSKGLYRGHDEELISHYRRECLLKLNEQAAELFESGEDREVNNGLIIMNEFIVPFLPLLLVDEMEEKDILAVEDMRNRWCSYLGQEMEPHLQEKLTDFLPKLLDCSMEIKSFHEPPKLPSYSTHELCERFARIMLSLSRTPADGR
As to the kind of experiment: USP25 activity measured using ubiquitin-rhodamine 110 method. Type of assay: biochemical. The note with it: for IC50: purified USP25 15 nM, ubiquitin-rhodamine 110 125 nM, 30 min preincubation; for IC50(F)/IC50(E) USP25: ratio of IC50 of related 3-NH2 compound (F) to IC50 of 3-NHMe compound disclosed herein (E). As to the method:
USP25 activity was measured using ubiquitin-rhodamine 110 method.
(§1) Purified USP25 and the ubiquitin-rhodamine 110 substrate used for measuring DUBs activity were both from R&D Systems. Test compounds were first dissolved in DMSO to prepare a 10 mM stock solution, and then the stock solution was diluted with a buffer solution [containing 20 mM Tris-HCl (pH 8.0), 2 mM CaCl2), 3 mM BME, 0.01% Prionix, 0.01% Triton X-100] to the desired concentration (with DMSO content less than or equal to 0.5%). The dilution was mixed well with USP25 (final concentration 15 nM) in a 96-well plate and incubated at room temperature for 30 min, and then added with the substrate (ubiquitin-rhodamine 110) to 125 nM. The final volume of the whole reaction system was 20 μL. The released fluorescence (excitation wavelength 485 nm, emission wavelength 535 nm) was detected immediately on a microplate reader after the addition of the substrate, and the inhibitory rate of the test compound against USP25 was calculated according to the following formula: Inhibition %=1−[(test compound+fluorescence value of substrate−fluorescence value of test compound (no substrate))/mean fluorescence value of DMSO control group−fluorescence value of test compound (no substrate)]
As in Example 11, according to the inhibitory rates of the test compound against USP25 under different concentrations, IC50 was calculated.

For assay [2], the target named is T2, USP28 (Homo sapiens, UniProt Q96RU2).
T2 construct: purchased R&D Systems
T2 sequence (Q96RU2 1-1077): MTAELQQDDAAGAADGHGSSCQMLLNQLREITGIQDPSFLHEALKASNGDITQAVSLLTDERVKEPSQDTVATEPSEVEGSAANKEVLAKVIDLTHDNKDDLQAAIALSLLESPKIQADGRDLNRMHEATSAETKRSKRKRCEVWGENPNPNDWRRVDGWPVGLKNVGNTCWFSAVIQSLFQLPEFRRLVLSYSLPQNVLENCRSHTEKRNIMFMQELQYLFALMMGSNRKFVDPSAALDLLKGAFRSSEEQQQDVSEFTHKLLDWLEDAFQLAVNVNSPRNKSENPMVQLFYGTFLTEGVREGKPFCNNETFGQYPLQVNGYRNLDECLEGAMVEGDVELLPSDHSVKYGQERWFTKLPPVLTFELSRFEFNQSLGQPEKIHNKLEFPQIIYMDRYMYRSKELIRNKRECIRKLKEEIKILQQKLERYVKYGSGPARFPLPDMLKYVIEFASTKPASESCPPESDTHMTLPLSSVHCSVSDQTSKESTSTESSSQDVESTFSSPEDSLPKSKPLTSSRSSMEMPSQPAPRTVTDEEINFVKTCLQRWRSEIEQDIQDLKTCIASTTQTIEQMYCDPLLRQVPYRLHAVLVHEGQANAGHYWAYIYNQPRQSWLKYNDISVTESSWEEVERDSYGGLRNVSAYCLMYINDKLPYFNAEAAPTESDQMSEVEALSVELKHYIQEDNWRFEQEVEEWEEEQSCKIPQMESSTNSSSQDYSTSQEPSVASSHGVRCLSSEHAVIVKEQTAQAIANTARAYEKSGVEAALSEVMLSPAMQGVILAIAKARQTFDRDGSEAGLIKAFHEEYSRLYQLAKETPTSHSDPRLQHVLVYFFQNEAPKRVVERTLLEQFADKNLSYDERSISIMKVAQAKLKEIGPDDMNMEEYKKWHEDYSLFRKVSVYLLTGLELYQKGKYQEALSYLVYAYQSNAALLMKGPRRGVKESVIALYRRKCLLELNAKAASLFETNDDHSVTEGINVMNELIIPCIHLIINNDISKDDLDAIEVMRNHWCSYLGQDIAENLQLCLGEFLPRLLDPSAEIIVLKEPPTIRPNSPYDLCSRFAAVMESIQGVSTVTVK
The assay can be described thus: USP28 activity measured using ubiquitin-rhodamine 110 method. Type of assay: biochemical. Conditions: for IC50: purified USP28 4 nM, ubiquitin-rhodamine 110 125 nM, 30 min preincubation; for IC50(F)/IC50(E) USP28: ratio of IC50 of related 3-NH2 compound (F) to IC50 of 3-NHMe compound disclosed herein (E). As to the method: USP28 activity was measured using ubiquitin-rhodamine 110 method.
as §1, with “USP28” for “USP25”, “4” for “15”, “substrate. The” for “substrate, and the”
According to the inhibitory rates of the test compound against USP28 under different concentrations, IC50 was calculated.

[3] abbreviates: read-out: Inhibitory activity against USP25 (IC50).
Setting [4] is: read-out: Inhibitory activity against USP28 (IC50).
[5] abbreviates: Inhibitory activity against USP25 (IC50).
Setting [6] is: Inhibitory activity against USP28 (IC50).

Each structure is given as a SMILES string. Read-outs that look alike come from different tables or passages of the source.

`CNc1c(C(=O)N[C@@H](C)Cc2ccc(Br)cc2)sc2nc(C)ccc12` [Compound I-61]: the IC50 is greater than 10 µM in assay [1] (setting [3]) and 1 to 5 µM in assay [2] (setting [4]).

For `CNc1c(C(=O)NCCc2ccc(C3C4CCC3CNC4)cc2)sc2nc(C)ccc12` (centres unmarked) [Compound I-5], the 50% inhibitory concentration (IC50) in assay [1] (setting [3]) and in assay [2] (setting [4]) was less than 0.1 µM throughout.

Turning to `CNc1c(C(=O)NCCc2ccc(OC)c(OC)c2)sc2nc(C)cc(C)c12` [Compound I-60], the results for the half-maximal inhibitory concentration (IC50) in assay [1] (setting [3]) and in assay [2] (setting [4]) were 5 to 10 µM and less than 0.1 µM, respectively.

On to `CNc1c(C(=O)NCCc2ccc(N3C[C@H]4CC[C@@H](C3)N4)cc2)sc2nc(C(F)(F)F)ccc12` [Compound I-16], for which the values for the IC50 in assay [1] (setting [3]) and in assay [2] (setting [4]) were 1 to 5 µM and 0.1 to 1 µM, respectively.

For the compound `CNc1c(C(=O)NCCc2ccc(N3C4CCC3CNC4)cc2)sc2nc(C)ccc12` [Compound I-6], the IC50 in assay [1] (setting [5]) and in assay [2] (setting [6]) was less than 0.1 µM each time.

On to `CNc1c(C(=O)NCCc2ccc(N3C[C@H]4CC[C@@H](C3)N4)cc2)sc2nc(C(C)C)ccc12` [Compound I-12], for which the IC50 was 5 to 10 µM in assay [1] (setting [3]) and less than 0.1 µM in assay [2] (setting [6]).

For the compound `CNc1c(C(=O)NCCc2ccc(C3CC4CCC(C3)N4)cc2)sc2nc(C)ccc12` (centres unmarked) [Compound I-4], the half-maximal inhibitory concentration (IC50) in assay [1] (setting [5]) and in assay [2] (setting [6]) was less than 0.1 µM throughout.

Consider `CNc1c(C(=O)NCCc2ccc(N3C[C@H]4CC[C@@H](C3)N4)cc2)sc2ncccc12` [Compound I-9], for which the IC50 in assay [1] (setting [3]) was 0.1 to 1 µM; in assay [2] (setting [6]), less than 0.1 µM. Moreover, in assay [1], the “IC50(F)/IC50(E) USP25” value is greater than 10. Besides, the “IC50(F)/IC50(E) USP28” value in assay [2] was 9.2.

Turning to `CNc1c(C(=O)NCCc2ccc(N3C[C@H]4CC[C@@H](C3)N4)cc2)sc2ncc(F)cc12` [Compound I-18], the IC50 was greater than 10 µM in assay [1] (setting [3]) and 0.1 to 1 µM in assay [2] (setting [4]).

In the case of `CNc1c(C(=O)NCCc2ccc(N3C[C@H]4CC[C@@H](C3)N4)cc2)sc2nc(C)ccc12` [Compound I-1, N-4-(3,8-diazabicyclo[3.2.1]octan-3-yl)phenethyl-6-methyl-3-methylaminothiophene[2,3-b]pyridine-2-carboxamide], the concentration for half-maximal inhibition (IC50) in assay [1] (setting [5]) and in assay [2] (setting [6]) was less than 0.1 µM throughout. Also, the “IC50(F)/IC50(E) USP25” value in assay [1] is given as greater than 20. Also, the “IC50(F)/IC50(E) USP28” value in assay [2] is 18.75.

For `CNc1c(C(=O)NC2COc3cc(N4CC5CCC(C4)N5)ccc3C2)sc2nc(C)ccc12` (centres unmarked) [Compound I-86], the values for the IC50 in assay [1] (setting [3]) and in assay [2] (setting [4]) were 1 to 5 µM and 0.1 to 1 µM, respectively.

As for `CCc1nc2sc(C(=O)NCCc3ccc(N4C[C@H]5CC[C@@H](C4)N5)cc3)c(NC)c2cc1C` [Compound I-31], the results for the IC50 in assay [1] (setting [3]) and in assay [2] (setting [6]) were 0.1 to 1 µM and less than 0.1 µM, respectively.

As to `CNc1c(C(=O)N[C@H](C)Cc2ccc(Br)cc2)sc2nc(C)ccc12` [Compound I-62], the values for the IC50 in assay [1] (setting [3]) and in assay [2] (setting [4]) were greater than 10 µM and 0.1 to 1 µM, respectively.

With `CNc1c(C(=O)NCCc2ccc(N3C[C@H]4CC[C@@H](C3)N4)c(Cl)c2)sc2nc(C)ccc12` [Compound I-38], the IC50 was greater than 10 µM in assay [1] (setting [3]) and less than 0.1 µM in assay [2] (setting [6]).

On to `CNc1c(C(=O)NCCc2ccc(N3CC4CCC(C3)N4)cc2)sc2nc(C(C)C)cnc12` [Compound I-73], for which the IC50 in assay [1] (setting [3]) was 0.1 to 1 µM; in assay [2] (setting [6]), less than 0.1 µM.

For the compound `CNc1c(C(=O)NCCc2cc(F)c(N3C[C@H]4CC[C@@H](C3)N4)cc2F)sc2nc(C)cnc12` [Compound I-78], the IC50 in assay [1] (setting [5]) and in assay [2] (setting [6]) was less than 0.1 µM each time.

On to `Cc1ccc2c(NCCN(C)C)c(C(=O)NCCc3ccc(N4C[C@H]5CC[C@@H](C4)N5)cc3)sc2n1` [Compound I-25], for which the figures for the concentration for half-maximal inhibition (IC50) in assay [1] (setting [3]) and in assay [2] (setting [4]) were greater than 10 µM and 5 to 10 µM, respectively.

Consider `CNc1c(C(=O)NC[C@H](C)c2cc(F)c(N3C[C@H]4CC[C@@H](C3)N4)cc2F)sc2nc(C)cnc12` [Compound I-79], for which the values for the IC50 in assay [1] (setting [3]) and in assay [2] (setting [6]) were 0.1 to 1 µM and less than 0.1 µM, respectively.

Take `CNc1c(C(=O)NCCc2coc3ccccc23)sc2nc(C)ccc12` [Compound I-56]: the IC50 in assay [1] (setting [3]) is 1 to 5 µM; in assay [2] (setting [4]), 0.1 to 1 µM.

In the case of `CNc1c(C(=O)NCCc2ccc(N3C[C@H]4CC[C@@H](C3)N4)cc2)sc2nc(C)c(F)cc12` [Compound I-29], the half-inhibitory concentration (IC50) in assay [1] (setting [3]) is 0.1 to 1 µM; in assay [2] (setting [6]), less than 0.1 µM.

On to `CNc1c(C(=O)NCCc2csc3ccccc23)sc2nc(C)ccc12` [Compound I-57], for which the 50% inhibitory concentration (IC50) was 5 to 10 µM in assay [1] (setting [3]) and less than 0.1 µM in assay [2] (setting [4]).

`CCc1cc(CCNC(=O)c2sc3nc(C)ccc3c2NC)ccc1N1[C@@H]2CC[C@H]1CNC2` [Compound I-34]: the concentration for half-maximal inhibition (IC50) is 0.1 to 1 µM in assay [1] (setting [3]) and less than 0.1 µM in assay [2] (setting [6]).

Take `CNc1c(C(=O)N[C@H](COC)Cc2ccc(N3C[C@H]4CC[C@@H](C3)N4)cc2)sc2nc(C)ccc12` [Compound I-65]: the IC50 fell in the range of 5 to 10 µM in assay [1] (setting [3]) and 0.1 to 1 µM in assay [2] (setting [4]).
